Measurements as given in PubChem BioAssay (NCI).
Values joined by “and” are separate entries in the source; they are usually repeats but may differ in a detail not shown here. Equal entries are not always repeated.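 Assay format: 96-well plates, 48-hour exposure. GI50: concentration for 50% inhibition of growth. TGI: concentration producing complete growth inhibition.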

Key:
Assay in all cases: NCI tumour cell line growth inhibition, 48 h
786-0 renal = tested on: 786-0 renal
A498 renal = tested on: A498 renal
A549 NSCLC = tested on: A549 NSCLC
ACHN renal = tested on: ACHN renal
BT-549 breast = tested on: BT-549 breast
CAKI-1 renal = tested on: CAKI-1 renal
CCRF-CEM leukemia = tested on: CCRF-CEM leukemia
COLO 205 colon = tested on: COLO 205 colon
DU-145 prostate = tested on: DU-145 prostate
EKVX NSCLC = tested on: EKVX NSCLC
HCC-2998 colon = tested on: HCC-2998 colon
HCT-116 colon = tested on: HCT-116 colon
HCT-15 colon = tested on: HCT-15 colon
HL-60(TB) leukemia = tested on: HL-60(TB) leukemia
HOP-62 NSCLC = tested on: HOP-62 NSCLC
HOP-92 NSCLC = tested on: HOP-92 NSCLC
HS 578T breast = tested on: HS 578T breast
HT29 colon = tested on: HT29 colon
IGROV1 ovarian = tested on: IGROV1 ovarian
K-562 leukemia = tested on: K-562 leukemia
KM12 colon = tested on: KM12 colon
LOX IMVI melanoma = tested on: LOX IMVI melanoma
M14 melanoma = tested on: M14 melanoma
MALME-3M melanoma = tested on: MALME-3M melanoma
MCF7 breast = tested on: MCF7 breast
MDA-MB-231 breast = tested on: MDA-MB-231 breast
MDA-MB-435 = tested on: MDA-MB-435
MDA-N = tested on: MDA-N
MOLT-4 leukemia = tested on: MOLT-4 leukemia
NCI-H226 lung = tested on: NCI-H226 lung
NCI-H23 lung = tested on: NCI-H23 lung
NCI-H522 lung = tested on: NCI-H522 lung
NCI/ADR-RES ovarian = tested on: NCI/ADR-RES ovarian
OVCAR-3 ovarian = tested on: OVCAR-3 ovarian
OVCAR-4 ovarian = tested on: OVCAR-4 ovarian
OVCAR-5 ovarian = tested on: OVCAR-5 ovarian
OVCAR-8 ovarian = tested on: OVCAR-8 ovarian
PC-3 prostate = tested on: PC-3 prostate
RPMI-8226 leukemia = tested on: RPMI-8226 leukemia
RXF 393 renal = tested on: RXF 393 renal
SF-268 CNS = tested on: SF-268 CNS
SF-295 CNS = tested on: SF-295 CNS
SF-539 CNS = tested on: SF-539 CNS
SK-MEL-2 melanoma = tested on: SK-MEL-2 melanoma
SK-MEL-28 melanoma = tested on: SK-MEL-28 melanoma
SK-MEL-5 melanoma = tested on: SK-MEL-5 melanoma
SK-OV-3 ovarian = tested on: SK-OV-3 ovarian
SN12C renal = tested on: SN12C renal
SNB-19 CNS = tested on: SNB-19 CNS
SNB-75 CNS = tested on: SNB-75 CNS
SR leukemia = tested on: SR leukemia
SW-620 colon = tested on: SW-620 colon
T-47D breast = tested on: T-47D breast
TK-10 renal = tested on: TK-10 renal
U251 CNS = tested on: U251 CNS
UACC-257 melanoma = tested on: UACC-257 melanoma
UACC-62 melanoma = tested on: UACC-62 melanoma
UO-31 renal = tested on: UO-31 renal

For `Cc1nc2c(Br)cc(Br)cc2c(=O)n1-c1ccccc1NC1OCC(O)C(O)C1O` (stereo unspecified), the GI50 (786-0 renal) was 45.1 µM and 13.6 µM, the TGI (786-0 renal) was > 100 µM and 32.6 µM and the GI50 (A498 renal) was 87.2 µM and 18.3 µM. The TGI (A498 renal) was > 100 µM and 45.6 µM, the GI50 (A549 NSCLC) was 34.8 µM and 10.1 µM and the TGI (A549 NSCLC) was > 100 µM and 34.6 µM. For the same molecule, the TGI (ACHN renal) was > 100 µM and 51.8 µM, the TGI (BT-549 breast) was over 100 µM and the TGI (CAKI-1 renal) was over 100 µM. The TGI (CCRF-CEM leukemia) was 56.7 µM and > 56.5 µM, the TGI (COLO 205 colon) was 34.2 µM and > 100 µM and the GI50 (DU-145 prostate) was 44.9 µM and 19.2 µM. For the same molecule, the TGI (DU-145 prostate) was > 100 µM and 46.3 µM, the TGI (EKVX NSCLC) was over 100 µM and the TGI (HCC-2998 colon) was over 100 µM. For the same molecule, the TGI (HCT-116 colon) was 65.7 µM and 40.2 µM, the TGI (HCT-15 colon) was over 100 µM and the GI50 (HL-60(TB) leukemia) was 18.6 µM and 7.03 µM. For the same molecule, the TGI (HL-60(TB) leukemia) was 43.4 µM and 15.7 µM, the GI50 (HOP-62 NSCLC) was > 100 µM and 10.3 µM and the TGI (HOP-62 NSCLC) was > 100 µM and 35.7 µM. For the same molecule, the TGI (HOP-92 NSCLC) was 82.1 µM and > 100 µM, the TGI (HS 578T breast) was over 100 µM and the TGI (HT29 colon) was 66.2 µM and 53.5 µM. The TGI (IGROV1 ovarian) was over 100 µM, the GI50 (K-562 leukemia) was 15.1 µM and > 32.7 µM and the TGI (K-562 leukemia) was 46.6 µM and > 81.2 µM. The TGI (KM12 colon) was 67 µM, the TGI (LOX IMVI melanoma) was 97.7 µM and > 51.3 µM and the TGI (M14 melanoma) was 46.7 µM and > 100 µM. The TGI (MALME-3M melanoma) was over 100 µM, the GI50 (MCF7 breast) was 28.4 µM and 3.7 µM and the TGI (MCF7 breast) was over 100 µM. The TGI (MDA-MB-231 breast) was over 100 µM, the TGI (MDA-MB-435) was over 100 µM and the TGI (MDA-N) was over 100 µM. For the same molecule, the GI50 (MOLT-4 leukemia) was 19.5 µM and 3.5 µM, the TGI (MOLT-4 leukemia) was 61.1 µM and > 36.1 µM and the GI50 (NCI-H226 lung) was 42.3 µM and 16.2 µM. The TGI (NCI-H226 lung) was > 100 µM and 48.9 µM, the TGI (NCI-H23 lung) was over 100 µM and the TGI (NCI-H522 lung) was 92.4 µM and 47.1 µM. The GI50 (NCI/ADR-RES ovarian) was 43.3 µM and > 100 µM, the TGI (NCI/ADR-RES ovarian) was over 100 µM and the TGI (OVCAR-3 ovarian) was 69.3 µM and 60.9 µM. For the same molecule, the TGI (OVCAR-4 ovarian) was over 100 µM, the TGI (OVCAR-5 ovarian) was over 100 µM and the GI50 (OVCAR-8 ovarian) was 30.6 µM and 14.5 µM. The TGI (OVCAR-8 ovarian) was > 100 µM and 50.7 µM, the TGI (PC-3 prostate) was over 100 µM and the GI50 (RPMI-8226 leukemia) was 28.5 µM and 9.26 µM. The TGI (RPMI-8226 leukemia) was > 100 µM and 41.7 µM, the GI50 (RXF 393 renal) was 33.2 µM and 12.5 µM and the TGI (RXF 393 renal) was > 100 µM and 49.2 µM. The GI50 (SF-268 CNS) was 45.1 µM and 5.56 µM, the TGI (SF-268 CNS) was > 100 µM and 34 µM and the GI50 (SF-295 CNS) was 43.1 µM and 14 µM. The TGI (SF-295 CNS) was > 100 µM and 65.3 µM, the GI50 (SF-539 CNS) was 48.4 µM and 7.53 µM and the TGI (SF-539 CNS) was > 100 µM and 22.3 µM. The TGI (SK-MEL-2 melanoma) was over 100 µM, the TGI (SK-MEL-28 melanoma) was over 100 µM and the GI50 (SK-MEL-5 melanoma) was 36.9 µM and 13.4 µM. For the same molecule, the TGI (SK-MEL-5 melanoma) was > 100 µM and 31.3 µM, the GI50 (SK-OV-3 ovarian) was 76.3 µM and 29.9 µM and the TGI (SK-OV-3 ovarian) was over 100 µM. The GI50 (SN12C renal) was 46.8 µM and 21.9 µM, the TGI (SN12C renal) was over 100 µM and the TGI (SNB-19 CNS) was over 100 µM. The TGI (SNB-75 CNS) was > 100 µM and 53.2 µM, the GI50 (SR leukemia) was 13.2 µM and 6 µM and the TGI (SR leukemia) was 41 µM and 13.6 µM. The TGI (SW-620 colon) was over 100 µM, the TGI (T-47D breast) was over 100 µM and the TGI (TK-10 renal) was over 100 µM. For the same molecule, the GI50 (U251 CNS) was 38.3 µM and 16.1 µM, the TGI (U251 CNS) was over 100 µM and the TGI (UACC-257 melanoma) was > 100 µM and 99.3 µM. The GI50 (UACC-62 melanoma) was 31.7 µM and 15.7 µM, the TGI (UACC-62 melanoma) was > 100 µM and 36.7 µM and the TGI (UO-31 renal) was over 100 µM.
